target: T1, NMDA receptor GRIN1/GRIN2B (NR2B) expressed in HEK293 cells (Homo sapiens, UniProt Q13224); test: Reversal of Ro 25-6981-mediated suppression of the Ca2+ response (fluo-8 fluorescence, FDSS) in HEK293 cells expressing GRIN1 and GRIN2B; assay type: cell-based; conditions: % reversal=100*(R−Rneg)/(Rpos−Rneg) of Ro 25-6981 suppression of co-agonist (glutamate/glycine) Ca2+ response, 10 min pre-incubation, compound concentration not given
T1 construct: host or cells: HEK293
Experimental: HEK293 cells with constructs conferring stable expression of the GRIN1 gene and tetracycline-inducible expression of the GRIN2B gene (Chantest, Cleveland, Ohio) are grown to ˜75% confluence in tissue culture flasks at 37° C., 5% CO2. NR2B expression is induced by overnight incubation with 0.3-0.4 μg/ml tetracycline in the presence of 2.5 mM ARL-15896 at 37° C., followed by moving to 30° C. for 3-5 hours. Cells are next harvested using TripleExpress™ (Life Technologies, Carlsbad, Calif.) according to the manufacturer's instructions, first removing culture medium, rinsing with Dulbecco's phosphate buffered saline (Ca^2+ and Mg^2+-free), and then adding the TripleExpress™ reagent. Harvested cells are spun down, washed twice in Ca^2+- and Mg^2+-free Hank's Balanced Salt Solution with 20 mM HEPES and 10 mM glucose, pH 7.4 (HHnoCa solution), and counted with viability assessed using Trypan Blue. Cells are loaded with fluo-8 Ca^2+-sensitive dye in HHnoCa solution according to the manufacturer's directions (AAT Bioquest, Sunnyvale, Calif.), incubating at 37° C. for 20 minutes followed by 25 minutes at 22-25° C. After a wash in HHnoCa to remove extracellular dye, cells are resuspended in HHnoCa and plated at […] cells per well in a volume of 25 μl/well in 384 well black-wall, clear bottom plates (Hamamatsu, Middlesex, N.J.). Plates are then centrifuged to create a monolayer in the wells and stored in the dark until used.
Prior to analysis, compound plates are prepared with each compound at 6× the final desired concentration. From stock solutions at 10 mM in 100% DMSO, compounds are spotted in the desired amounts using an ECHO liquid handler (Labcyte, Sunnyvale, Calif.) into wells of a 384-well plate and then diluted with 50 μl of HHnoCa containing 750 nM Ro 25-6981 and 120 μM 5,7-dichlorokynurenic acid (both purchased from Tocris Bioscience (Bristol, England) and maintained as 10 mM stock solutions in 100% DMSO). To insure complete compound dissolution, these plates are then placed in an orbital shaker for at least one hour. Also prepared prior to the assay is a co-agonist plate containing HHnoCa with 240 μM glutamate, 2.4 mM glycine, and 7.2 mM CaCl2, which is 2.4× the desired final concentration of each reagent. Both the compound plate and co-agonist plate are 384-well polypropylene plates from Thermo Fisher Scientific, Waltham, Mass.
The assay is performed by first adding 10 μl solution from each well of the compound plate described above to the cell plate using a CyBiWell liquid handler (Analytik Jena AG, Jena, Germany), followed by 10 minutes pre-incubation in the dark. Cell plates are then loaded onto a Hamamatsu FDSS 6000 plate reader. After a 30-second baseline, 25 μl is added to each well from the co-agonist plate, and the fluorescence signal is recorded for another 2 minutes. FDSS software applies shading and autofluorescence correction, and resultant raw fluorescence measurements are exported in the form of a fluorescence ratio for each well to its own reading at time zero in the experiment. In each plate, negative control wells consist of wells where Ro 25-6981 and 5,7 dichlorokynurenic acid are present and co-agonist is applied in the absence of any added assay compound. Under these conditions, the Ca^2+ response to co-agonist is suppressed. Positive control wells also present in each plate contain 5,7 dichlorokynurenic acid but no Ro 25-6981, so that co-agonist addition results in a large Ca^2+ response. Compounds tested are evaluated on the basis of their ability to reverse the suppression of the Ca^2+ response mediated by Ro 25-6981, which is quantified as % reversal=100*(R−Rneg)/(Rpos−Rneg) where R is the fluorescence ratio for the test compound at the end of the experiment and Rneg and Rpos are the end ratios for the negative and positive controls, respectively. […]

T1 sequence (Q13224 27-1484, other chains not shown): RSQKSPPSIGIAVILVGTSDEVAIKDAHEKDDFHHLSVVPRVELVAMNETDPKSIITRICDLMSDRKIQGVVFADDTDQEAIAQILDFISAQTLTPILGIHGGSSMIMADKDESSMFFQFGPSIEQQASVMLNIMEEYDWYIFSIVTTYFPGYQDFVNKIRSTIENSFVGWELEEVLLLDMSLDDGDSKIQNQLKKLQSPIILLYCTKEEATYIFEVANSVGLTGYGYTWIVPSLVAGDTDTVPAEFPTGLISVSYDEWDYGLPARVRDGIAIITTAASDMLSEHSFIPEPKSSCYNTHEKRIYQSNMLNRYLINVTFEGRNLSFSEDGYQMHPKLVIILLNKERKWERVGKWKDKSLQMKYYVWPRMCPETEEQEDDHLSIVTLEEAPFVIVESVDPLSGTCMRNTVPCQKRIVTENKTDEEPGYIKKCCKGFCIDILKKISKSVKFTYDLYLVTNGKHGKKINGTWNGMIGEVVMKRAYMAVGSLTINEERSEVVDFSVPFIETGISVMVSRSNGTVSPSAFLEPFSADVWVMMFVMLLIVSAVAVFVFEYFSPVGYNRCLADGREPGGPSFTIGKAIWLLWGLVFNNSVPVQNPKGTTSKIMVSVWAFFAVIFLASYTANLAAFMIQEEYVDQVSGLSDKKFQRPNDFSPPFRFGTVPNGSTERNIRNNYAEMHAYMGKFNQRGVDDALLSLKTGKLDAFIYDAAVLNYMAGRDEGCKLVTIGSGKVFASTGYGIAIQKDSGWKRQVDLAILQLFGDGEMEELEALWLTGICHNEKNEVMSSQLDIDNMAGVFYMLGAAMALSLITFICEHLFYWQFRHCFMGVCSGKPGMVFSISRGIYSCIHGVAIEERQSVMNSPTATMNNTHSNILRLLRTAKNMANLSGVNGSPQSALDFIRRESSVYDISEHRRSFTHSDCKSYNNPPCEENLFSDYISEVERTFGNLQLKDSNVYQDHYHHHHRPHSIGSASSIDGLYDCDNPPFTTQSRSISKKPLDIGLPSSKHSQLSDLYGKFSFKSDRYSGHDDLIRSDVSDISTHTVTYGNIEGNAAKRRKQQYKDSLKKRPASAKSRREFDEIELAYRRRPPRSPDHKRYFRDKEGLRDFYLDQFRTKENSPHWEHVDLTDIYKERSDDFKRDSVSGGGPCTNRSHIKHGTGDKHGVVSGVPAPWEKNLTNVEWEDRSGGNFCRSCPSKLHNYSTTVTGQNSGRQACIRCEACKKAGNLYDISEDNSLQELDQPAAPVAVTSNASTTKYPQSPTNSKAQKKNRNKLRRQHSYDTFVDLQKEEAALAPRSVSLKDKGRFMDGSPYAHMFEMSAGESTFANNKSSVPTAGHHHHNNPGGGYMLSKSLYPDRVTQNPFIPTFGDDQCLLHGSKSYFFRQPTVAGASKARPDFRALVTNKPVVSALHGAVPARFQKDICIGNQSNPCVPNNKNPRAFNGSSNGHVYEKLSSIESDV

SMILES	Response Recovered (%)
O=C(Cn1cnc2scc(-c3ccc(Cl)cc3)c2c1=O)N1CCC(O)CC1 [Example 1, 5-(4-chlorophenyl)-3-(2-(4-hydroxypiperidin-1-yl)-2-oxoethyl)thieno[2,3-d]pyrimidin-4(3H)-one]	0%
O=C(Cn1cnc2scc(-c3ccc(Cl)cc3)c2c1=O)N1CCC(F)CC1 [Example 2, 5-(4-chlorophenyl)-3-[2-(4-fluoropiperidin-1-yl)-2-oxoethyl]-3H,4H-thieno[2,3-d]pyrimidin-4-one]	25%
CN1CCN(C(=O)Cn2cnc3scc(-c4ccc(Cl)cc4)c3c2=O)CC1 [Example 3, 5-(4-chlorophenyl)-3-[2-(4-methylpiperazin-1-yl)-2-oxoethyl]-3H,4H-thieno└2,3-d┘pyrimidin-4-one]	3%
O=C(Cn1cnc2scc(-c3ccc(Cl)cc3)c2c1=O)N1CCOCC1 [Example 4, 5-(4-chlorophenyl)-3-[2-(morpholin-4-yl)-2-oxoethyl]-3H,4H-thieno└2,3-d┘pyrimidin-4-one]	3%
O=C(Cn1cnc2scc(-c3ccc(Cl)cc3)c2c1=O)NC1CC1 [Example 5, 2-[5-(4-chlorophenyl)-4-oxo-3H,4H-thieno[2,3-d]pyrimidin-3-yl]-N-cyclopropylacetamide]	2%
O=C(Cn1cnc2scc(-c3ccc(Cl)cc3)c2c1=O)N1CCC(O)C1 (stereo not shown) [Example 6, 5-(4-chlorophenyl)-3-[2-(3-hydroxypyrrolidin-1-yl)-2-oxoethyl]-3H,4H-thieno[2,3-d]pyrimidin-4-one]	3%
CN1CCC(NC(=O)Cn2cnc3scc(-c4ccc(Cl)cc4)c3c2=O)C1 (stereo not shown) [Example 7, 2-[5-(4-chlorophenyl)-4-oxo-3H,4H-thieno[2,3-d]pyrimidin-3-yl]-N-(1-methylpyrrolidin-3-yl)acetamide]	3%
O=C(Cn1cnc2scc(-c3ccc(Cl)cc3)c2c1=O)N1CCCCC1 [Example 8, 5-(4-chlorophenyl)-3-[2-oxo-2-(piperidin-1-yl)ethyl]-3H,4H-thieno[2,3-d]pyrimidin-4-one]	3%
O=C(Cn1cnc2scc(-c3ccc(Cl)cc3)c2c1=O)NC1CCC1 [Example 9, 2-[5-(4-chlorophenyl)-4-oxo-3H,4H-thieno[2,3-d]pyrimidin-3-yl]-N-cyclobutylacetamide]	3%
C[C@H]1CCCN1C(=O)Cn1cnc2scc(-c3ccc(Cl)cc3)c2c1=O [Example 10, 5-(4-chlorophenyl)-3-{2-[(2S)-2-methylpyrrolidin-1-yl]-2-oxoethyl}-3H,4H-thieno[2,3-d]pyrimidin-4-one]	2%
O=C(Cn1cnc2scc(-c3ccc(Cl)cc3)c2c1=O)N1CCCC1C(F)(F)F (stereo not shown) [Example 11, 5-(4-chlorophenyl)-3-{2-oxo-2-[2-(trifluoromethyl)pyrrolidin-1-yl]ethyl}-3H,4H-thieno[2,3-d]pyrimidin-4-one]	8%
CC1CCCC(C)N1C(=O)Cn1cnc2scc(-c3ccc(Cl)cc3)c2c1=O (stereo not shown) [Example 12, 5-(4-chlorophenyl)-3-[2-(2,6-dimethylpiperidin-1-yl)-2-oxoethyl]-3H,4H-thieno[2,3-d]pyrimidin-4-one]	−1%
CCN(CC)C(=O)Cn1cnc2scc(-c3ccc(Cl)cc3)c2c1=O [Example 13, 2-[5-(4-chlorophenyl)-4-oxo-3H,4H-thieno[2,3-d]pyrimidin-3-yl]-N,N-diethylacetamide]	5%
O=C(Cn1cnc2scc(-c3ccc(Cl)cc3)c2c1=O)N1CCC(F)(F)CC1 [Example 14, 5-(4-chlorophenyl)-3-[2-(4,4-difluoropiperidin-1-yl)-2-oxoethyl]-3H,4H-thieno└2,3-d┘pyrimidin-4-one]	2%
O=C(Cn1cnc2scc(-c3ccc(Cl)cc3)c2c1=O)N1CCC(O)(c2ccccc2)CC1 [Example 15, 5-(4-chlorophenyl)-3-[2-(4-hydroxy-4-phenylpiperidin-1-yl)-2-oxoethyl]-3H,4H-thieno[2,3-d]pyrimidin-4-one]	−1%
O=C(Cn1cnc2scc(-c3ccc(Cl)cc3)c2c1=O)N1CCC(F)C1 (stereo not shown) [Example 16, 5-(4-chlorophenyl)-3-[2-(3-fluoropyrrolidin-1-yl)-2-oxoethyl]-3H,4H-thieno[2,3-d]pyrimidin-4-one]	21%
O=C(Cn1cnc2scc(-c3ccc(C(F)(F)F)cc3)c2c1=O)N1CCCC1 [Example 17, 3-[2-oxo-2-(pyrrolidin-1-yl)ethyl]-5-[4-(trifluoromethyl)phenyl]-3H,4H-thieno[2,3-d]pyrimidin-4-one]	11%
O=C(Cn1cnc2scc(-c3ccc(C(F)(F)F)cc3)c2c1=O)N1CCCC1C(F)(F)F (stereo not shown) [Example 18, 3-{2-oxo-2-[2-(trifluoromethyl)pyrrolidin-1-yl]ethyl}-5-[4-(trifluoromethyl)phenyl]-3H,4H-thieno[2,3-d]pyrimidin-4-one]	8%
O=C(Cn1cnc2scc(-c3ccc(Cl)c(C(F)(F)F)c3)c2c1=O)N1CCC(F)C1 (stereo not shown) [Example 19, 5-[4-chloro-3-(trifluoromethyl)phenyl]-3-[2-(3-fluoropyrrolidin-1-yl)-2-oxoethyl]-3H,4H-thieno[2,3-d]pyrimidin-4-one]	93%

The remaining lines, values ahead:

Response Recovered (%)	SMILES
76%	O=C(Cn1cnc2scc(-c3ccc(Cl)c(C(F)(F)F)c3)c2c1=O)N1CCCC1 [Example 20, 5-(4-chloro-3-(trifluoromethyl)phenyl)-3-(2-oxo-2-(pyrrolidin-1-yl)ethyl)thieno[2,3-d]pyrimidin-4(3H)-one]
19%	O=C(Cn1cnc2scc(-c3ccc(Cl)c(F)c3)c2c1=O)N1CCCC1 [Example 21, 5-(4-chloro-3-fluorophenyl)-3-(2-oxo-2-(pyrrolidin-1-yl)ethyl)thieno[2,3-d]pyrimidin-4(3H)-one]
4%	O=C(Cn1cnc2scc(-c3ccc(F)cc3)c2c1=O)N1CCCCC1 [Example 24, 5-(4-fluorophenyl)-3-[2-oxo-2-(piperidin-1-yl)ethyl]-3H,4H-thieno[2,3-d]pyrimidin-4-one]
1%	O=C(Cn1cnc2scc(-c3ccc(C(F)(F)F)cc3)c2c1=O)N1CCCCC1 [Example 26, 3-[2-oxo-2-(piperidin-1-yl)ethyl]-5-[4-(trifluoromethyl)phenyl]-3H,4H-thieno[2,3-d]pyrimidin-4-one]
7%	O=C(Cn1cnc2scc(-c3ccc(F)cc3)c2c1=O)N1CCCC1C(F)(F)F (stereo not shown) [Example 27]
6%	Cc1ccc(-c2csc3ncn(CC(=O)N4CCCC4C(F)(F)F)c(=O)c23)cc1 (stereo not shown) [Example 28, 5-(4-methylphenyl)-3-{2-oxo-2-[2-(trifluoromethyl)pyrrolidin-1-yl]ethyl}-3H,4H-thieno[2,3-d]pyrimidin-4-one]
41%	O=C(Cn1cnc2scc(-c3ccc(F)c(Cl)c3)c2c1=O)N1CCCC1 [Example 30, 5-(3-chloro-4-fluorophenyl)-3-[2-oxo-2-(pyrrolidin-1-yl)ethyl]-3H,4H-thieno└2,3-d┘pyrimidin-4-one]
3%	O=C(Cn1cnc2scc(-c3cccc(F)c3)c2c1=O)N1CCCC1 [Example 31, 5-(3-fluorophenyl)-3-[2-oxo-2-(pyrrolidin-1-yl)ethyl]-3H,4H-thieno└2,3-d┘pyrimidin-4-one]
2%	N#Cc1ccc(-c2csc3ncn(CC(=O)N4CCCC4)c(=O)c23)cc1 [Example 32, 4-{4-oxo-3-[2-oxo-2-(pyrrolidin-1-yl)ethyl]-3H,4H-thieno[2,3-d]pyrimidin-5-yl}benzonitrile]
